Results on 21 molecules are retold here after patent US9914737B2, “Triazolopyrimidinone or triazolopyridinone derivatives, and use thereof” (ST PHARM CO., LTD., priority 2014, dated 2018).

Where a name gives a salt, the structure may show the parent alone.

In one test the target is T1, tankyrase 1 (Homo sapiens, UniProt O95271).
T1 construct: purchased Trevigen 4700-096-K
T1 sequence (O95271 1-1327): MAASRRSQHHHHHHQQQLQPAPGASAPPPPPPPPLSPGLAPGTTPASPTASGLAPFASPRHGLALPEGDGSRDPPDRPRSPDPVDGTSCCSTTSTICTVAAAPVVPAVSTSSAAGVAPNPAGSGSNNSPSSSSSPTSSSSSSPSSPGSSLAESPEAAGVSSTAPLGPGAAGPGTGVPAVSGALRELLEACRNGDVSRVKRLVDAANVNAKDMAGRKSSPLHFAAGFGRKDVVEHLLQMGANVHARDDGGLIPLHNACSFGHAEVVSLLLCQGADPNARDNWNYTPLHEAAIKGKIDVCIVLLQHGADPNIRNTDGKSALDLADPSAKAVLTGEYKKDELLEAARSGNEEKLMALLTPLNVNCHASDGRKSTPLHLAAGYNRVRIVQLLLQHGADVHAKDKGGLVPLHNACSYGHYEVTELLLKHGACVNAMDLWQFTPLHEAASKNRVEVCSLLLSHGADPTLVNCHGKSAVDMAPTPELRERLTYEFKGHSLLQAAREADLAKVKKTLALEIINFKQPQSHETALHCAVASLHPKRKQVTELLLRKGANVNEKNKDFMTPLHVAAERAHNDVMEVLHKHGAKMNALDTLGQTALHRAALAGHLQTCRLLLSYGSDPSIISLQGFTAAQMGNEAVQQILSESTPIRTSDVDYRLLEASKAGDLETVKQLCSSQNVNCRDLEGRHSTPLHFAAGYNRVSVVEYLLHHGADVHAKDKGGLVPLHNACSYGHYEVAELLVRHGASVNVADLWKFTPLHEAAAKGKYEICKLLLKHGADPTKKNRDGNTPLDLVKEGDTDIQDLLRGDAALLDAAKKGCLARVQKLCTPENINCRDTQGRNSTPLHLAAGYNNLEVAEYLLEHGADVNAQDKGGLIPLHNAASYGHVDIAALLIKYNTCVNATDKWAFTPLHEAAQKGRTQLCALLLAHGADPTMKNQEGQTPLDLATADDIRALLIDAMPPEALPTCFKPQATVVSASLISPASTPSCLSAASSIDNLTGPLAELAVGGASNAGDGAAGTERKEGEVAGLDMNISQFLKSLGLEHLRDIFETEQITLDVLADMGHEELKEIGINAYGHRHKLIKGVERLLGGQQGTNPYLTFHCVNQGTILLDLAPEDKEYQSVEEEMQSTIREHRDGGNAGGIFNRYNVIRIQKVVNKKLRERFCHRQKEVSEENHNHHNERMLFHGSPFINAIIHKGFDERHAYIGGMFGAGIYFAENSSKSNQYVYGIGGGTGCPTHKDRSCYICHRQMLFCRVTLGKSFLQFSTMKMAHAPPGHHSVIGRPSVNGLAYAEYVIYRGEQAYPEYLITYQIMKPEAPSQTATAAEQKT
The test can be described thus: Analysis of activity of tankyrase 1 (Trevigen kit, ELISA absorbance at 450 nm). Type of test: biochemical.
Conditions: not given
As to the method: Activities of novel compounds synthesized according to Examples 1 to 72 against tankyrase 1 were analyzed using a Trevigen kit (Cat. No. 4700-096-K). Poly PAR histone protein-coated 96-well plate, anti-PAR monoclonal antibody and goat anti-mouse IgG-HRP were used for measurement of absorbance by ELISA method. Specifically, 20× I-PAR assay buffer was diluted to 1× by adding water, and 50 μL of the diluted buffer was added to each well of the 96-well plate followed by reacting at rt for 30 min. Then, the supernatant was completely removed from each well and 10 μL of 1× I-PAR assay buffer and 15 μL of assay substrate were added to each well along with 1 μL of a 50× solution of inhibitors to be tested, which were the compounds obtained in the Examples 1 to 72. 10 mUnits/μL of tankyrase 1 enzyme was diluted 50-fold with 1× I-PAR assay buffer and 25 μL of the diluted enzyme was added to each well and reacted while stirring at rt for 30 min. One without any compound of the present invention was used as a positive control and another containing 1× I-PAR assay buffer with the same volume instead of tankyrase 1 enzyme was used as a negative control. Upon completion of the reaction, 200 μL of PBSX, which was prepared by adding 0.1% triton X-100 to PBS, was added and removed and this washing process was repeated twice. Washing was repeated twice more using PBS in the same manner. 5× antibody diluent was diluted with distilled water to 1× concentration, 50 μL of the diluted goat anti-mouse IgG-HRP to 1/2000 was added to each well and reacted while stirring at rt for 30 min. Washes were carried out twice using PBSX and PBS, respectively. After adding 50 μL of TACS-sapphire to each well of the plate, the plate was blocked from light to react for 10 min to 15 min and the color of the reaction solution turned blue. To stop the reaction, 50 μL of 0.2N HCl was added to turn the solution yellow. Finally, the absorbance of the resulting solution was measured at 450 nm.
What is called IC50 is the midpoint of a concentration-inhibition curve. As for `Cn1nnc2c(=O)[nH]c(N3CCN(c4ccccc4F)CC3)nc21` [compound 1, 5-(4-(2-Fluorophenyl)piperazin-1-yl)-3-methyl-3H-[1,2,3]triazolo[4,5-d]pyrimidin-7(6H)-one], it took 66.7 nM to reach half-maximal inhibition (IC50).
On the same count and under the same terms, next, `COCCOc1cc(F)c(N2CCN(c3nc4c(nnn4C)c(=O)[nH]3)CC2)c(F)c1` [compound 2, 5-(4-(2,6-Difluoro-4-(2-methoxyethoxy)phenyl)piperazin-1-yl)-3-methyl-3H-[1,2,3]triazolo[4,5-d]pyrimidin-7(6H)-one]: 29.9 nM; `CC(C)Oc1cc(F)c(N2CCN(c3nc4c(nnn4C)c(=O)[nH]3)CC2)c(F)c1` [compound 9, 5-(4-(2,6-Difluoro-4-isopropoxyphenyl)piperazin-1-yl)-3-methyl-3H-[1,2,3]triazolo[4,5-d]pyrimidin-7(6H)-one]: 60.9 nM.
On the same count and under the same terms, to `Cn1nnc2c(=O)[nH]c(N3CCN(c4c(F)cc(OC5COC5)cc4F)CC3)nc21` [compound 15, 5-(4-(2,6-Difluoro-4-(oxetan-3-yloxy)phenyl)piperazin-1-yl)-3-methyl-3H-[1,2,3]triazolo[4,5-d]pyrimidin-7(6H)-one] belongs 24.7 nM; to `Cn1nnc2c(=O)[nH]c(N3CCN(c4c(F)cccc4F)CC3)nc21` [compound 21, 5-(4-(2,6-Difluorophenyl)piperazin-1-yl)-3-methyl-3H-[1,2,3]triazolo[4,5-d]pyrimidin-7(6H)-one], 8.9 nM.

The same test, now with this note: tankyrase 1 enzyme, Trevigen kit Cat. No. 4700-096-K, 30 min at rt; read-out: TNKS1 (IC50).
Consider `Cn1nnc2c(=O)[nH]c(N3CCN(c4c(F)cc(OCc5ccccc5)cc4F)CC3)nc21` [compound 3, 5-(4-(4-(Benzyloxy)-2,6-difluorophenyl)piperazin-1-yl)-3-methyl-3H-[1,2,3]triazolo[4,5-d]pyrimidin-7(6H)-one], for which the IC50 was found to be 207 nM.
Take `Cn1nnc2c(=O)[nH]c(N3CCN(c4c(F)cc(OCCN5CCOCC5)cc4F)CC3)nc21` [compound 4, 5-(4-(2,6-Difluoro-4-(2-morpholinoethoxy)phenyl)piperazin-1-yl)-3-methyl-3H-[1,2,3]triazolo[4,5-d]pyrimidin-7(6H)-one]: the half-inhibitory concentration (IC50) worked out at 38.6 nM.
Still for that read-out and setting: next, `Cn1nnc2c(=O)[nH]c(N3CCN(c4c(F)cc(OCCN5CCCCC5)cc4F)CC3)nc21` [compound 5, 5-(4-(2,6-Difluoro-4-(2-(piperidin-1-yl)ethoxy)phenyl)piperazin-1-yl)-3-methyl-3H-[1,2,3]triazolo[4,5-d]pyrimidin-7(6H)-one]: 14.2 nM.
The same measure, in the same setting: next, `CN(C)CCOc1cc(F)c(N2CCN(c3nc4c(nnn4C)c(=O)[nH]3)CC2)c(F)c1` [compound 6, 5-(4-(4-(2-(Dimethylamino)ethoxy)-2,6-difluorophenyl)piperazin-1-yl)-3-methyl-3H-[1,2,3]triazolo[4,5-d]pyrimidin-7(6H)-one]: 16.3 nM; `Cn1nnc2c(=O)[nH]c(N3CCN(c4c(F)cc(OCCO)cc4F)CC3)nc21` [compound 7, 5-(4-(2,6-Difluoro-4-(2-hydroxyethoxy)phenyl)piperazin-1-yl)-3-methyl-3H-[1,2,3]triazolo[4,5-d]pyrimidin-7(6H)-one]: 44 nM.
The same measure, in the same setting: next, `CC(=O)OCCOc1cc(F)c(N2CCN(c3nc4c(nnn4C)c(=O)[nH]3)CC2)c(F)c1` [compound 8, 2-(3,5-Difluoro-4-(4-(3-methyl-7-oxo-6,7-dihydro-3H-[1,2,3]triazolo[4,5-d]pyrimidin-5-yl)piperazin-1-yl)phenoxy)ethyl acetate]: 46.9 nM; `C[C@@H](N)C(=O)OCCOc1cc(F)c(N2CCN(c3nc4c(nnn4C)c(=O)[nH]3)CC2)c(F)c1` [compound 10, (R)-2-(3,5-difluoro-4-(4-(3-methyl-7-oxo-6,7-dihydro-3H-[1,2,3]triazolo[4,5-d]pyrimidin-5-yl)piperazin-1-yl)phenoxy)ethyl2-aminopropanoate hydrochloride]: 32 nM; `C[C@H](N)C(=O)OCCOc1cc(F)c(N2CCN(c3nc4c(nnn4C)c(=O)[nH]3)CC2)c(F)c1` [compound 11, (S)-2-(3,5-difluoro-4-(4-(3-methyl-7-oxo-6,7-dihydro-3H-[1,2,3]triazolo[4,5-d]pyrimidin-5-yl)piperazin-1-yl)phenoxy)ethyl2-aminopropanoate hydrochloride]: 14.5 nM.
Regarding `Cn1nnc2c(=O)[nH]c(N3CCN(c4c(F)cc(OCC(O)CO)cc4F)CC3)nc21` (stereo not drawn) [compound 12, 5-(4-(4-(2,3-Dihydroxypropoxy)-2,6-difluorophenyl)piperazin-1-yl)-3-methyl-3H-[1,2,3]triazolo[4,5-d]pyrimidin-7(6H)-one], the IC50 was found to be 12.9 nM.
On to `Cn1nnc2c(=O)[nH]c(N3CCN(c4c(F)cc(CN5CCOCC5)cc4F)CC3)nc21` [compound 13, 5-(4-(2,6-Difluoro-4-(morpholinomethyl)phenyl)piperazin-1-yl)-3-methyl-3H-[1,2,3]triazolo[4,5-d]pyrimidin-7(6H)-one], for which the IC50 came out at 28 nM.
The same measure, in the same setting: next, `CN1CCN(Cc2cc(F)c(N3CCN(c4nc5c(nnn5C)c(=O)[nH]4)CC3)c(F)c2)CC1` [compound 14, 5-(4-(2,6-Difluoro-4-((4-methylpiperazin-1-yl)methyl)phenyl)piperazin-1-yl)-3-methyl-3H-[1,2,3]triazolo[4,5-d]pyrimidin-7(6H)-one]: 41.5 nM.
For `Cn1nnc2c(=O)[nH]c(N3CCN(c4c(F)cc(OC(CO)CCl)cc4F)CC3)nc21` (stereo not drawn) [compound 16, 5-(4-(4-(1-Chloro-3-hydroxypropan-2-yloxy)-2,6-difluorophenyl)piperazin-1-yl)-3-methyl-3H-[1,2,3]triazolo[4,5-d]pyrimidin-7(6H)-one], the IC50 came out at 28.6 nM.
Same read-out and setting: to `CC(O)c1cc(F)c(N2CCN(c3nc4c(nnn4C)c(=O)[nH]3)CC2)c(F)c1` (stereo not drawn) [compound 17, 5-(4-(2,6-Difluoro-4-(1-hydroxyethyl)phenyl)piperazin-1-yl)-3-methyl-3H-[1,2,3]triazolo[4,5-d]pyrimidin-7(6H)-one] belongs 17.6 nM; to `COC(C)c1cc(F)c(N2CCN(c3nc4c(nnn4C)c(=O)[nH]3)CC2)c(F)c1` (stereo not drawn) [compound 18, 5-(4-(2,6-Difluoro-4-(1-methoxyethyl)phenyl)piperazin-1-yl)-3-methyl-3H-[1,2,3]triazolo[4,5-d]pyrimidin-7(6H)-one], 30 nM; to `Cn1nnc2c(=O)[nH]c(N3CCN(c4c(F)cc(OCCCCCC(=O)O)cc4F)CC3)nc21` [compound 19, 6-(3,5-Difluoro-4-(4-(3-methyl-7-oxo-6,7-dihydro-3H-[1,2,3]triazolo[4,5-d]pyrimidin-5-yl)piperazin-1-yl)phenoxy)hexanoic acid], 80 nM.
On the same count and under the same terms, next, `COCCN(C)Cc1cc(F)c(N2CCN(c3nc4c(nnn4C)c(=O)[nH]3)CC2)c(F)c1` [compound 20, 5-(4-(2,6-Difluoro-4-(((2-methoxyethyl)(methyl)amino)methyl)phenyl)piperazin-1-yl)-3-methyl-3H-[1,2,3]triazolo[4,5-d]pyrimidin-7(6H)-one]: 83.1 nM.
